Experimental findings from ChEMBL document CHEMBL5528002, “Identification of selective 5-LOX and FLAP inhibitors as novel anti-inflammatory agents by ligand-based virtual screening” (Eur J Med Chem, 2024) are described below.

The source made the active and inactive calls. The rule behind the calls is not given here.

Experiment [1] has as its target T1, Polyunsaturated fatty acid 5-lipoxygenase (Homo sapiens) (UniProt P09917).
T1 sequence (whole entry): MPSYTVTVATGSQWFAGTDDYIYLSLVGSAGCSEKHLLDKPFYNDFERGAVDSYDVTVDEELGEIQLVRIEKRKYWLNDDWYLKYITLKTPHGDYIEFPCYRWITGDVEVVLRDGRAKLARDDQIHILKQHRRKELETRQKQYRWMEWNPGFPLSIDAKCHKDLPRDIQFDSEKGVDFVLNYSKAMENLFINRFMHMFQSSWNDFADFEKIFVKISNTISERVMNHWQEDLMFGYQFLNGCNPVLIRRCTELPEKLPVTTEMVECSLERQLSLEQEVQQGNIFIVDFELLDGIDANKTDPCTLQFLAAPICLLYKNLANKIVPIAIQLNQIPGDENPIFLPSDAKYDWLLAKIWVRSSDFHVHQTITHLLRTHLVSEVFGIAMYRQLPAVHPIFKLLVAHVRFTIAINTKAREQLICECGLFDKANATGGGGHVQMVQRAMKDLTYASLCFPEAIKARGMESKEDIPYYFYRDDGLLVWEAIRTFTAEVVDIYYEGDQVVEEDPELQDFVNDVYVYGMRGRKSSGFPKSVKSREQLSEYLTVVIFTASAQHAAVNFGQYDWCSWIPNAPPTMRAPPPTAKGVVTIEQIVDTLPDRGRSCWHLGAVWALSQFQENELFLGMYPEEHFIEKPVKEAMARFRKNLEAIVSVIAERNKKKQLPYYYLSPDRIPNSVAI
The experiment can be described thus: Inhibition of 5-LOX in human Neutrophil assessed as enzyme remaining activity at 10 uM preincubated with compound for 15 mins followed by A23187 addition measured after 10 mins by RP-HPLC analysis relative to control. The conditions noted are these: time 25.0 min. The format is cell-based.

Experiment [2] concerns the target T2, Prostaglandin E synthase (Homo sapiens) (UniProt O14684).
T2 sequence (whole entry): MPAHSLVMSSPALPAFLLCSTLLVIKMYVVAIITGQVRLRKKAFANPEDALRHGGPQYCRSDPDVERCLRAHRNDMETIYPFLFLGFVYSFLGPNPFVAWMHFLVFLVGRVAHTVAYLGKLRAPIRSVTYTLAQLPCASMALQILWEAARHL
The experiment can be described thus: Inhibition of human mPGES-1 assessed as enzyme remaining activity at 10 uM relative to control.

In experiment [3] the target is T3, Polyunsaturated fatty acid 5-lipoxygenase (Homo sapiens, UniProt P09917).
T3 sequence (P09917 whole entry): T1 sequence (whole entry)
The experiment can be described thus: Inhibition of 5-LOX in human Neutrophil preincubated with compound for 15 mins followed by A23187 addition measured after 10 mins by RP-HPLC analysis. The format is cell-based.

Experiment [4] relates to Macrophage cell line. The experiment in a line: Effect on lipid mediator formation in human M1-like phenotype MDM cells by measuring t-LTB4 formation at 10 uM pre-incubated for 15 mins followed by SACM stimulation and measured after 90 mins by UPLC-MS/MS analysis (reference value: 338 +/- 102 pg/ml). To be noted: time 105 min, 1.75 h. The format is functional.
Experiment [5] has as its system Macrophage cell line. The experiment in a line: Effect on lipid mediator formation in human M1-like phenotype MDM cells by measuring 7-HDHA formation at 10 uM pre-incubated for 15 mins followed by SACM stimulation and measured after 90 mins by UPLC-MS/MS analysis (reference value: 118 +/- 14 pg/ml). The format is functional. To be noted: time 105 min, 1.75 h.
Experiment [6] relates to Macrophage cell line. The experiment can be described thus: Effect on lipid mediator formation in human M1-like phenotype MDM cells by measuring 12-HEPE formation at 10 uM pre-incubated for 15 mins followed by SACM stimulation and measured after 90 mins by UPLC-MS/MS analysis (reference value: 40 +/- 9 pg/ml). The format is functional. To be noted: time 105 min, 1.75 h.

The subject of experiment [7] is Macrophage cell line. The experiment can be described thus: Effect on lipid mediator formation in human M1-like phenotype MDM cells by measuring arachidonic acid formation at 10 uM pre-incubated for 15 mins followed by SACM stimulation and measured after 90 mins by UPLC-MS/MS analysis (reference value: 69242 +/- 58 pg/ml). The format is functional. The conditions noted are these: time 105 min, 1.75 h.

The test system of experiment [8] is Macrophage cell line. The experiment in a line: Effect on lipid mediator formation in human M1-like phenotype MDM cells by measuring 5-HETE formation at 10 uM pre-incubated for 15 mins followed by SACM stimulation and measured after 90 mins by UPLC-MS/MS analysis relative to control. The format is functional. The conditions noted are these: time 105 min, 1.75 h.

The subject of experiment [9] is Macrophage cell line. The experiment in a line: Effect on lipid mediator formation in human M1-like phenotype MDM cells by measuring t-LTB4 formation at 10 uM pre-incubated for 15 mins followed by SACM stimulation and measured after 90 mins by UPLC-MS/MS analysis relative to control. The format is functional. To be noted: time 105 min, 1.75 h.
The subject of experiment [10] is Macrophage cell line. The experiment can be described thus: Effect on lipid mediator formation in human M1-like phenotype MDM cells by measuring LTB4 formation at 10 uM pre-incubated for 15 mins followed by SACM stimulation and measured after 90 mins by UPLC-MS/MS analysis relative to control. The format is functional. To be noted: time 105 min, 1.75 h.
Experiment [11] concerns Macrophage cell line. The experiment in a line: Effect on lipid mediator formation in human M1-like phenotype MDM cells by measuring PGE2 formation at 10 uM pre-incubated for 15 mins followed by SACM stimulation and measured after 90 mins by UPLC-MS/MS analysis relative to control. The format is functional. To be noted: time 105 min, 1.75 h.
For experiment [12], the system named is Macrophage cell line. The experiment can be described thus: Effect on lipid mediator formation in human M1-like phenotype MDM cells by measuring 7-HDHA formation at 10 uM pre-incubated for 15 mins followed by SACM stimulation and measured after 90 mins by UPLC-MS/MS analysis relative to control. The format is functional. To be noted: time 105 min, 1.75 h.

In experiment [13] the test system is Macrophage cell line. The experiment in a line: Effect on lipid mediator formation in human M1-like phenotype MDM cells by measuring 12-HETE formation at 10 uM pre-incubated for 15 mins followed by SACM stimulation and measured after 90 mins by UPLC-MS/MS analysis relative to control. The conditions noted are these: time 105 min, 1.75 h. The format is functional.

The subject of experiment [14] is Macrophage cell line. The experiment in a line: Effect on lipid mediator formation in human M2-like phenotype MDM cells by measuring 4-HDHA formation at 10 uM pre-incubated for 15 mins followed by SACM stimulation and measured after 90 mins by UPLC-MS/MS analysis (reference value: 58 +/- 8 pg/ml). The format is functional. The conditions noted are these: time 105 min, 1.75 h.

Experiment [15] has as its system Macrophage cell line. The experiment in a line: Effect on lipid mediator formation in human M2-like phenotype MDM cells by measuring 5-HEPE formation at 10 uM pre-incubated for 15 mins followed by SACM stimulation and measured after 90 mins by UPLC-MS/MS analysis relative to control. The format is functional. To be noted: time 105 min, 1.75 h.
The subject of experiment [16] is Macrophage cell line. The experiment can be described thus: Effect on lipid mediator formation in human M2-like phenotype MDM cells by measuring PGF2alpha formation at 10 uM pre-incubated for 15 mins followed by SACM stimulation and measured after 90 mins by UPLC-MS/MS analysis relative to control. To be noted: time 105 min, 1.75 h. The format is functional.
Experiment [17] has as its system Macrophage cell line. The experiment can be described thus: Effect on lipid mediator formation in human M2-like phenotype MDM cells by measuring 17-HDHA formation at 10 uM pre-incubated for 15 mins followed by SACM stimulation and measured after 90 mins by UPLC-MS/MS analysis relative to control. The format is functional. The conditions noted are these: time 105 min, 1.75 h.

In experiment [18] the test system is Macrophage cell line. The experiment in a line: Effect on lipid mediator formation in human M2-like phenotype MDM cells by measuring 7-HDHA formation at 10 uM pre-incubated for 15 mins followed by SACM stimulation and measured after 90 mins by UPLC-MS/MS analysis relative to control. The format is functional. To be noted: time 105 min, 1.75 h.
For experiment [19], the target named is T1, Polyunsaturated fatty acid 5-lipoxygenase (Homo sapiens). The experiment in a line: Inhibition of 5-LOX in human Neutrophil at 10 uM preincubated with compound for 15 mins followed by A23187 addition measured after 10 mins by RP-HPLC analysis relative to control. The format is cell-based. To be noted: time 25.0 min.
The next experiment concerns Neutrophil. The experiment can be described thus: Inhibition of ROS production in PMA-induced human Neutrophil cells at 10 uM incubated for 10 mins by DCFH-DA dye based fluorometric assay. The format is functional, cell-based.

What is called IC50 is the concentration that inhibits the measured activity by half. As a reminder, the inhibition is the relative decrease from the control value, in per cent. For `COc1ccc(C2=C/C(=C/c3ccc(O)cc3O)C(=O)O2)cc1`, the Activity was 19.6% in experiment [1]; 89.3% in experiment [2]; 28 pg/mL in the experiment on Macrophage cell line [4]; 36 pg/mL in the experiment with Macrophage cell line [5]; 37 pg/mL with Macrophage cell line [6]; 80565 pg/mL in the experiment with Macrophage cell line [7]. For the same molecule, the Activity amounted to 7% with Macrophage cell line [8]; 8% with Macrophage cell line [9]; 8% in the experiment with Macrophage cell line [10]; 93% with Macrophage cell line [11]; 31% in the experiment on Macrophage cell line [12]; 87% with Macrophage cell line [13]. In addition, the Activity is 49 pg/mL in the experiment with Macrophage cell line [14]; 18% in the experiment on Macrophage cell line [15]; 125% in the experiment with Macrophage cell line [16]; 173% in the experiment with Macrophage cell line [17]; 121% in the experiment with Macrophage cell line [18]. In addition, in [3], the IC50 amounted to 4800 nM. In addition, the inhibition in [19] is > 50%. Moreover, the inhibition result in the experiment on Neutrophil was “inactive”.
For the molecule `Oc1ccc(CCC2CCC(c3ccc(O)cc3)CO2)cc1` (stereo not given), the Activity is 4.2% in [1]; 80.3% in [2]; 29 pg/mL in the experiment on Macrophage cell line [4]; 45 pg/mL with Macrophage cell line [5]; 36 pg/mL in the experiment with Macrophage cell line [6]; 74786 pg/mL in the experiment with Macrophage cell line [7]. Besides, the Activity is 13% in the experiment with Macrophage cell line [8]; 8% in the experiment on Macrophage cell line [9]; 6% in the experiment on Macrophage cell line [10]; 69% with Macrophage cell line [11]; 38% in the experiment on Macrophage cell line [12]; 87% with Macrophage cell line [13]. The Activity with Macrophage cell line [14] amounted to 58 pg/mL; with Macrophage cell line [15], 34%; with Macrophage cell line [16], 80%; with Macrophage cell line [17], 149%; in the experiment with Macrophage cell line [18], 116%. Also, the IC50 in experiment [3] is 1100 nM. Besides, the inhibition in experiment [19] is > 50%. The inhibition result in the experiment on Neutrophil is “inactive”.
